Assay results published in paper PMC13230610, “Fast analysis and engineering of protein function by microbe-independent deep assembly and screening” (Molecular Systems Biology, 2026).

What was measured:
[1] = test system: T1, ACh-NeuBI0.5 (engineered OpuBC fused with SmBiT/LgBiT and mScarlet-I); assay: bioluminescence dose-response of indicator expressed on HEK293A cells; type: cell-based, Homo sapiens (HEK293A cells)
T1 construct: mScarlet-I at N-terminus of OpuBC (30-106)-linker 1 (Phe)-SmBiT (∆C3)-LgBiT-OpuBC (107-305)

[2] = test system: T2, ACh-NeuBI1b (ACh-NeuBI0.5 QAE; engineered OpuBC fused with SmBiT/LgBiT and mScarlet-I); assay: bioluminescence dose-response in HEK293A cells; also purified protein responded; type: cell-based, Homo sapiens (HEK293A cells)
T2 construct: ACh-NeuBI0.5 QAE

| SMILES | Kd [1] [µM] | Kd [2] [µM] |
| --- | --- | --- |
| CC(=O)OCC[N+](C)(C)C [acetylcholine] | 898 | 188 |
| C[N+](C)(C)CCO [choline] | 11000 |  |
